Earlier results as cited in patent US6927291B2, “Method for the synthesis of 2′,3′-dideoxy-2′,3′-didehydronucleosides” (Pharmasset, Ltd., priority 2001, dated 2005).

How the values were obtained:
HIV [1] = conditions: result in words
[2] = tested on: AZT-resistant HIV isolates; conditions: in vitro; isolates from patients treated with AZT for longer than 36 weeks
HIV [3] = conditions: versus all approved anti-HIV agents

SMILES	activity against HIV (HIV [1])	inhibition of replication of AZT-resistant HIV isolates [2]	cross-resistance (HIV [3])
Nc1ccn(C2CSC(CO)O2)c(=O)n1 (racemic) [BCH-189, 2-hydroxymethyl-5-(cytosin-1-yl)-1,3-oxathiolane]	approximately the same activity against HIV as AZT	inhibit the replication of AZT-resistant HIV isolates in vitro	–
Nc1ccn([C@@H]2CS[C@H](CO)O2)c(=O)n1 [Formula 3TC]	highly potent against HIV	–	–
Nc1nc(=O)n([C@@H]2CS[C@H](CO)O2)cc1F (relative stereo) [FTC, cis-2-hydroxymethyl-5-(5-fluorocytosin-1-yl)-1,3-oxathiolane]	potent HIV activity	–	–
Nc1nc(=O)n(C2C=CC(CO)O2)cc1F [β-D-D4FC, β-D-2′,3′-didehydro-2′,3′-dideoxy-5-fluorocytidine]	potent anti-HIV activity in vitro	–	no cross-resistance with all approved anti-HIV agents
